Measured values as given in patent publication US20100160454A1, “ANTIMICROBIAL AGENTS, COMPOSITIONS AND PRODUCTS CONTAINING THE SAME, AND METHODS OF USING THE COMPOSITIONS AND PRODUCTS” (Eastman Chemical Company, priority 2008, published 2010).

Experiments:
Assay in all cases: Microbiological challenge testing in BPW broth, graded subculture counts
Assay type in all cases: cell-based
[1] = tested on: Streptococcus mutans ATCC 35668
In short: (§1)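 TSB + 1% dextrose cultures, 35 ± 2 °C, ≥96 h. Inoculum calibrated by NTU vs plate counts; challenge at 10^5–10^6 CFU/mL final in BPW/1% dextrose with test material. Triplicates (butoxyethanol in duplicate). Spread plates on PCA, ≥48 h, CFU/mL = count × dilution.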

[2] = tested on: Escherichia coli ATCC 25922; conditions: E. Coli
In short: as §1

[3] = tested on: Staphylococcus epidermidis ATCC 12228
In short: as §1

Aeromonas sp. Wild type = tested on: Aeromonas sp. Wild type
In short: as §1

[4] = tested on: Bacillus subtilis Wild type
In short: as §1

[5] = tested on: Pseudomonas aeruginosa Wild type; conditions: P. aeruginosa
In short: as §1

Question: What does the source list for `CC(O)CO` (stereo not drawn) [PG, propylene glycol]?
Answer: S. mutans growth grade, 3 day ([1]; 0.5% weight/volume): 5 (More than 10,000 colonies estimated (thus more than 100,000 CFU/mL)); S. mutans growth grade, 13 day ([1]; 0.5% weight/volume): 5 (More than 10,000 colonies estimated (thus more than 100,000 CFU/mL)); S. mutans growth grade, 30 day ([1]; 0.5% weight/volume): 5 (More than 10,000 colonies estimated (thus more than 100,000 CFU/mL)); S. mutans growth grade, 3 day ([1]; 1.25% weight/volume): 4 (1000 to 10,000 colonies countable (thus 10,000 CFU/mL to 100,000 CFU/mL)); S. mutans growth grade, 13 day ([1]; 1.25% weight/volume): 4 (1000 to 10,000 colonies countable (thus 10,000 CFU/mL to 100,000 CFU/mL)); S. mutans growth grade, 30 day ([1]; 1.25% weight/volume): 4 (1000 to 10,000 colonies countable (thus 10,000 CFU/mL to 100,000 CFU/mL)); S. mutans growth grade, 3 day ([1]; 2.5% weight/volume): 4 (1000 to 10,000 colonies countable (thus 10,000 CFU/mL to 100,000 CFU/mL)); S. mutans growth grade, 13 day ([1]; 2.5% weight/volume): 4 (1000 to 10,000 colonies countable (thus 10,000 CFU/mL to 100,000 CFU/mL)); S. mutans growth grade, 30 day ([1]; 2.5% weight/volume): 4 (1000 to 10,000 colonies countable (thus 10,000 CFU/mL to 100,000 CFU/mL)); S. mutans growth grade, 3 day ([1]; 5.0% weight/volume): 4 (1000 to 10,000 colonies countable (thus 10,000 CFU/mL to 100,000 CFU/mL)); S. mutans growth grade, 13 day ([1]; 5.0% weight/volume): 4 (1000 to 10,000 colonies countable (thus 10,000 CFU/mL to 100,000 CFU/mL)); S. mutans growth grade, 30 day ([1]; 5.0% weight/volume): 4 (1000 to 10,000 colonies countable (thus 10,000 CFU/mL to 100,000 CFU/mL)); Grade ([2]; 0.5% (wt/vol), 3 day): 5 (More than 10,000 colonies estimated (thus more than 100,000 CFU/mL)); Grade ([2]; 0.5% (wt/vol), 14 day): 5 (More than 10,000 colonies estimated (thus more than 100,000 CFU/mL)); Grade ([2]; 0.5% (wt/vol), 30 day): 5 (More than 10,000 colonies estimated (thus more than 100,000 CFU/mL)); Grade ([2]; 1.25% (wt/vol), 3 day): 5 (More than 10,000 colonies estimated (thus more than 100,000 CFU/mL)); Grade ([2]; 1.25% (wt/vol), 14 day): 4 (1000 to 10,000 colonies countable (thus 10,000 CFU/mL to 100,000 CFU/mL)); Grade ([2]; 1.25% (wt/vol), 30 day): 4 (1000 to 10,000 colonies countable (thus 10,000 CFU/mL to 100,000 CFU/mL)); Grade ([2]; 2.5% (wt/vol), 3 day): 5 (More than 10,000 colonies estimated (thus more than 100,000 CFU/mL)); Grade ([2]; 2.5% (wt/vol), 14 day): 4 (1000 to 10,000 colonies countable (thus 10,000 CFU/mL to 100,000 CFU/mL)); Grade ([2]; 2.5% (wt/vol), 30 day): 4 (1000 to 10,000 colonies countable (thus 10,000 CFU/mL to 100,000 CFU/mL)); Grade ([2]; 5.0% (wt/vol), 3 day): 4 (1000 to 10,000 colonies countable (thus 10,000 CFU/mL to 100,000 CFU/mL)); Grade ([2]; 5.0% (wt/vol), 14 day): 4 (1000 to 10,000 colonies countable (thus 10,000 CFU/mL to 100,000 CFU/mL)); Grade ([2]; 5.0% (wt/vol), 30 day): 4 (1000 to 10,000 colonies countable (thus 10,000 CFU/mL to 100,000 CFU/mL)); S. epidermidis growth grade, 3 day ([3]; 0.5% weight/volume): 5 (More than 10,000 colonies estimated (thus more than 100,000 CFU/mL)); S. epidermidis growth grade, 13 day ([3]; 0.5% weight/volume): 5 (More than 10,000 colonies estimated (thus more than 100,000 CFU/mL)); S. epidermidis growth grade, 30 day ([3]; 0.5% weight/volume): 5 (More than 10,000 colonies estimated (thus more than 100,000 CFU/mL)); S. epidermidis growth grade, 3 day ([3]; 1.25% weight/volume): 4 (1000 to 10,000 colonies countable (thus 10,000 CFU/mL to 100,000 CFU/mL)); S. epidermidis growth grade, 13 day ([3]; 1.25% weight/volume): 4 (1000 to 10,000 colonies countable (thus 10,000 CFU/mL to 100,000 CFU/mL)); S. epidermidis growth grade, 30 day ([3]; 1.25% weight/volume): 4 (1000 to 10,000 colonies countable (thus 10,000 CFU/mL to 100,000 CFU/mL)); S. epidermidis growth grade, 3 day ([3]; 2.5% weight/volume): 4 (1000 to 10,000 colonies countable (thus 10,000 CFU/mL to 100,000 CFU/mL)); S. epidermidis growth grade, 13 day ([3]; 2.5% weight/volume): 4 (1000 to 10,000 colonies countable (thus 10,000 CFU/mL to 100,000 CFU/mL)); S. epidermidis growth grade, 30 day ([3]; 2.5% weight/volume): 4 (1000 to 10,000 colonies countable (thus 10,000 CFU/mL to 100,000 CFU/mL)); S. epidermidis growth grade, 3 day ([3]; 5.0% weight/volume): 4 (1000 to 10,000 colonies countable (thus 10,000 CFU/mL to 100,000 CFU/mL)); S. epidermidis growth grade, 13 day ([3]; 5.0% weight/volume): 4 (1000 to 10,000 colonies countable (thus 10,000 CFU/mL to 100,000 CFU/mL)); S. epidermidis growth grade, 30 day ([3]; 5.0% weight/volume): 4 (1000 to 10,000 colonies countable (thus 10,000 CFU/mL to 100,000 CFU/mL)); Aeromonas sp growth grade, 3 day (Aeromonas sp. Wild type; 0.5% weight/volume): 5 (More than 10,000 colonies estimated (thus more than 100,000 CFU/mL)); Aeromonas sp growth grade, 14 day (Aeromonas sp. Wild type; 0.5% weight/volume): 5 (More than 10,000 colonies estimated (thus more than 100,000 CFU/mL)); Aeromonas sp growth grade, 30 day (Aeromonas sp. Wild type; 0.5% weight/volume): 5 (More than 10,000 colonies estimated (thus more than 100,000 CFU/mL)); Aeromonas sp growth grade, 3 day (Aeromonas sp. Wild type; 1.25% weight/volume): 5 (More than 10,000 colonies estimated (thus more than 100,000 CFU/mL)); Aeromonas sp growth grade, 14 day (Aeromonas sp. Wild type; 1.25% weight/volume): 5 (More than 10,000 colonies estimated (thus more than 100,000 CFU/mL)); Aeromonas sp growth grade, 30 day (Aeromonas sp. Wild type; 1.25% weight/volume): 5 (More than 10,000 colonies estimated (thus more than 100,000 CFU/mL)); Aeromonas sp growth grade, 3 day (Aeromonas sp. Wild type; 2.5% weight/volume): 5 (More than 10,000 colonies estimated (thus more than 100,000 CFU/mL)); Aeromonas sp growth grade, 14 day (Aeromonas sp. Wild type; 2.5% weight/volume): 5 (More than 10,000 colonies estimated (thus more than 100,000 CFU/mL)); Aeromonas sp growth grade, 30 day (Aeromonas sp. Wild type; 2.5% weight/volume): 5 (More than 10,000 colonies estimated (thus more than 100,000 CFU/mL)); Aeromonas sp growth grade, 3 day (Aeromonas sp. Wild type; 5.0% weight/volume): 5 (More than 10,000 colonies estimated (thus more than 100,000 CFU/mL)); Aeromonas sp growth grade, 14 day (Aeromonas sp. Wild type; 5.0% weight/volume): 4 (1000 to 10,000 colonies countable (thus 10,000 CFU/mL to 100,000 CFU/mL)); Aeromonas sp growth grade, 30 day (Aeromonas sp. Wild type; 5.0% weight/volume): 4 (1000 to 10,000 colonies countable (thus 10,000 CFU/mL to 100,000 CFU/mL)); B. subtillis growth grade, 3 day ([4]; 0.5% weight/volume): 5 (More than 10,000 colonies estimated (thus more than 100,000 CFU/mL)); B. subtillis growth grade, 14 day ([4]; 0.5% weight/volume): 5 (More than 10,000 colonies estimated (thus more than 100,000 CFU/mL)); B. subtillis growth grade, 30 day ([4]; 0.5% weight/volume): 5 (More than 10,000 colonies estimated (thus more than 100,000 CFU/mL)); B. subtillis growth grade, 3 day ([4]; 1.25% weight/volume): 5 (More than 10,000 colonies estimated (thus more than 100,000 CFU/mL)); B. subtillis growth grade, 14 day ([4]; 1.25% weight/volume): 4 (1000 to 10,000 colonies countable (thus 10,000 CFU/mL to 100,000 CFU/mL)); B. subtillis growth grade, 30 day ([4]; 1.25% weight/volume): 4 (1000 to 10,000 colonies countable (thus 10,000 CFU/mL to 100,000 CFU/mL)); B. subtillis growth grade, 3 day ([4]; 2.5% weight/volume): 5 (More than 10,000 colonies estimated (thus more than 100,000 CFU/mL)); B. subtillis growth grade, 14 day ([4]; 2.5% weight/volume): 4 (1000 to 10,000 colonies countable (thus 10,000 CFU/mL to 100,000 CFU/mL)); B. subtillis growth grade, 30 day ([4]; 2.5% weight/volume): 4 (1000 to 10,000 colonies countable (thus 10,000 CFU/mL to 100,000 CFU/mL)); B. subtillis growth grade, 3 day ([4]; 5.0% weight/volume): 5 (More than 10,000 colonies estimated (thus more than 100,000 CFU/mL)); B. subtillis growth grade, 14 day ([4]; 5.0% weight/volume): 4 (1000 to 10,000 colonies countable (thus 10,000 CFU/mL to 100,000 CFU/mL)); B. subtillis growth grade, 30 day ([4]; 5.0% weight/volume): 4 (1000 to 10,000 colonies countable (thus 10,000 CFU/mL to 100,000 CFU/mL)); Grade ([5]; 0.5% (wt/vol), 3 day): 4 (1000 to 10,000 colonies countable (thus 10,000 CFU/mL to 100,000 CFU/mL)); Grade ([5]; 0.5% (wt/vol), 13 day): 4 (1000 to 10,000 colonies countable (thus 10,000 CFU/mL to 100,000 CFU/mL)); Grade ([5]; 0.5% (wt/vol), 30 day): 5 (More than 10,000 colonies estimated (thus more than 100,000 CFU/mL)); Grade ([5]; 1.25% (wt/vol), 3 day): 4 (1000 to 10,000 colonies countable (thus 10,000 CFU/mL to 100,000 CFU/mL)); Grade ([5]; 1.25% (wt/vol), 13 day): 4 (1000 to 10,000 colonies countable (thus 10,000 CFU/mL to 100,000 CFU/mL)); Grade ([5]; 1.25% (wt/vol), 30 day): 4 (1000 to 10,000 colonies countable (thus 10,000 CFU/mL to 100,000 CFU/mL)); Grade ([5]; 2.5% (wt/vol), 3 day): 4 (1000 to 10,000 colonies countable (thus 10,000 CFU/mL to 100,000 CFU/mL)); Grade ([5]; 2.5% (wt/vol), 13 day): 4 (1000 to 10,000 colonies countable (thus 10,000 CFU/mL to 100,000 CFU/mL)); Grade ([5]; 2.5% (wt/vol), 30 day): 4 (1000 to 10,000 colonies countable (thus 10,000 CFU/mL to 100,000 CFU/mL)); Grade ([5]; 5.0% (wt/vol), 3 day): 4 (1000 to 10,000 colonies countable (thus 10,000 CFU/mL to 100,000 CFU/mL)); Grade ([5]; 5.0% (wt/vol), 13 day): 4 (1000 to 10,000 colonies countable (thus 10,000 CFU/mL to 100,000 CFU/mL)); Grade ([5]; 5.0% (wt/vol), 30 day): 4 (1000 to 10,000 colonies countable (thus 10,000 CFU/mL to 100,000 CFU/mL))
